Experiments:
[1] = (§1) The drug is tested on Z-030 corresponding to mouse gut metagenome with ENA study accession number: PRJEB37062 and ENA sample accession number: ERS12561829 for biotransformation under anaerobic condition. The drug concentrations were measured over 9 timepoints collected between 0 and 24 hours of incubation by liquid-chromatography-coupled mass spectrometry (LC–MS); conditions: 2 µM
[2] = as §1, with “Z-028” for “Z-030”, “ERS12561827” for “ERS12561829”; conditions: 2 µM
[3] = as §1, with “Z-022” for “Z-030”, “ERS12561821” for “ERS12561829”; conditions: 2 µM
[4] = as §1, with “Z-017” for “Z-030”, “ERS12561816” for “ERS12561829”; conditions: 2 µM
[5] = as §1, with “Z-013” for “Z-030”, “rabbit” for “mouse”, “ERS12561813” for “ERS12561829”; conditions: 2 µM
[6] = as §1, with “Z-010” for “Z-030”, “to” for “to mouse gut”, “ERS12561810” for “ERS12561829”; conditions: 2 µM
[7] = as §1, with “Z-009” for “Z-030”, “pig” for “mouse”, “ERS12561809” for “ERS12561829”; conditions: 2 µM
[8] = as §1, with “Z-005” for “Z-030”, “to” for “to mouse gut”, “ERS12561805” for “ERS12561829”; conditions: 2 µM
[9] = as §1, with “Z-002” for “Z-030”, “rabbit” for “mouse”, “ERS12561802” for “ERS12561829”; conditions: 2 µM
[10] = as §1, with “WLS-240” for “Z-030”, “human” for “mouse”, “ERS12561773” for “ERS12561829”; conditions: 2 µM
[11] = as §1, with “WLS-098” for “Z-030”, “human” for “mouse”, “ERS12561754” for “ERS12561829”; conditions: 2 µM
[12] = human gut metagenome, 24 h, 2 µM
[13] = human gut metagenome, 24 h, 2 µM; remark: listed apart in the source
[14] = human gut metagenome, 24 h, 2 µM; remark: listed apart in the source
[15] = human gut metagenome, 24 h, 2 µM; remark: listed apart in the source
[16] = human gut metagenome, 24 h, 2 µM; remark: listed apart in the source
[17] = human gut metagenome, 24 h, 2 µM; remark: listed apart in the source
[18] = human gut metagenome, 24 h, 2 µM; remark: listed apart in the source
[19] = human gut metagenome, 24 h, 2 µM; remark: listed apart in the source
[20] = human gut metagenome, 24 h, 2 µM; remark: listed apart in the source
Note: call rule not given here.

| SMILES | Bacterial Biotransformation [1] | Bacterial Biotransformation [2] | Bacterial Biotransformation [3] | Bacterial Biotransformation [4] | Bacterial Biotransformation [5] | Bacterial Biotransformation [6] | Bacterial Biotransformation [7] | Bacterial Biotransformation [8] | Bacterial Biotransformation [9] | Bacterial Biotransformation [10] | Bacterial Biotransformation [11] | Bacterial Biotransformation [12] | Bacterial Biotransformation [13] | Bacterial Biotransformation [14] | Bacterial Biotransformation [15] | Bacterial Biotransformation [16] | Bacterial Biotransformation [17] | Bacterial Biotransformation [18] | Bacterial Biotransformation [19] | Bacterial Biotransformation [20] |
| --- | --- | --- | --- | --- | --- | --- | --- | --- | --- | --- | --- | --- | --- | --- | --- | --- | --- | --- | --- | --- |
| CCCc1nn(C)c2c(=O)[nH]c(-c3cc(S(=O)(=O)N4CCN(C)CC4)ccc3OCC)nc12.O=C(O)CC(O)(CC(=O)O)C(=O)O [SILDENAFIL CITRATE] | Compound NOT metabolized | Compound NOT metabolized | Compound metabolized | Compound NOT metabolized | Compound NOT metabolized | Compound NOT metabolized | Compound NOT metabolized | Compound NOT metabolized | Compound NOT metabolized | Compound metabolized | Compound NOT metabolized | Compound metabolized | Compound metabolized | Compound NOT metabolized | Compound NOT metabolized | Compound NOT metabolized | Compound metabolized | Compound NOT metabolized | Compound metabolized | Compound metabolized |
| O=c1n(CCCN2CCN(c3cccc(Cl)c3)CC2)nc2ccccn12 [TRAZODONE] | Compound NOT metabolized | Compound NOT metabolized | Compound metabolized | Compound NOT metabolized | Compound NOT metabolized | Compound metabolized | Compound NOT metabolized | Compound NOT metabolized | Compound metabolized | Compound metabolized | Compound metabolized | Compound NOT metabolized | Compound metabolized | Compound metabolized | Compound metabolized | Compound metabolized | Compound NOT metabolized | Compound metabolized | Compound metabolized | Compound metabolized |
| OC(CCN1CCCCC1)(c1ccccc1)C1CCCCC1 (stereo not given) [TRIHEXYPHENIDYL] | Compound NOT metabolized | Compound NOT metabolized | Compound metabolized | Compound NOT metabolized | Compound NOT metabolized | Compound metabolized | Compound metabolized | Compound metabolized | Compound metabolized | Compound metabolized | Compound metabolized | Compound metabolized | Compound metabolized | Compound metabolized | Compound metabolized | Compound metabolized | Compound NOT metabolized | Compound metabolized | Compound metabolized | Compound metabolized |
| Cc1cn([C@H]2C[C@H](N=[N+]=[N-])[C@@H](CO)O2)c(=O)[nH]c1=O [ZIDOVUDINE] | Compound metabolized | Compound metabolized | Compound metabolized | Compound metabolized | Compound NOT metabolized | Compound NOT metabolized | Compound NOT metabolized | Compound NOT metabolized | Compound metabolized | Compound NOT metabolized | Compound NOT metabolized | Compound NOT metabolized | Compound NOT metabolized | Compound NOT metabolized | Compound NOT metabolized | Compound NOT metabolized | Compound NOT metabolized | Compound NOT metabolized | Compound NOT metabolized | Compound metabolized |

The remaining lines, values ahead:

| Bacterial Biotransformation [1] | Bacterial Biotransformation [2] | Bacterial Biotransformation [3] | Bacterial Biotransformation [4] | Bacterial Biotransformation [5] | Bacterial Biotransformation [6] | Bacterial Biotransformation [7] | Bacterial Biotransformation [8] | Bacterial Biotransformation [9] | Bacterial Biotransformation [10] | Bacterial Biotransformation [11] | Bacterial Biotransformation [12] | Bacterial Biotransformation [13] | Bacterial Biotransformation [14] | Bacterial Biotransformation [15] | Bacterial Biotransformation [16] | Bacterial Biotransformation [17] | Bacterial Biotransformation [18] | Bacterial Biotransformation [19] | Bacterial Biotransformation [20] | SMILES |
| --- | --- | --- | --- | --- | --- | --- | --- | --- | --- | --- | --- | --- | --- | --- | --- | --- | --- | --- | --- | --- |
| Compound metabolized | Compound metabolized | Compound NOT metabolized | Compound metabolized | Compound metabolized | Compound metabolized | Compound metabolized | Compound metabolized | Compound NOT metabolized | Compound metabolized | Compound metabolized | Compound NOT metabolized | Compound NOT metabolized | Compound metabolized | Compound metabolized | Compound metabolized | Compound metabolized | Compound metabolized | Compound NOT metabolized | Compound NOT metabolized | COc1ccc2[nH]c([S+]([O-])Cc3ncc(C)c(OC)c3C)nc2n1 (stereo not given) [TENATOPRAZOLE] |
| Compound NOT metabolized | Compound NOT metabolized | Compound metabolized | Compound NOT metabolized | Compound NOT metabolized | Compound NOT metabolized | Compound NOT metabolized | Compound NOT metabolized | Compound NOT metabolized | Compound NOT metabolized | Compound NOT metabolized | Compound NOT metabolized | Compound NOT metabolized | Compound NOT metabolized | Compound metabolized | Compound NOT metabolized | Compound NOT metabolized | Compound NOT metabolized | Compound NOT metabolized | Compound NOT metabolized | CN1C(C(=O)Nc2ccccn2)=C(O)c2sccc2S1(=O)=O [TENOXICAM] |
